Measurements as given in the supplement of paper PMC10307832.

Legend:
Experiment in all cases: relative viability (nuclei count vs DMSO), 5 days (fraction); higher = more cells survive
NCI-H1993 = test system: NCI-H1993
Procedure, shortened: (§1)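 Lung cancer cell lines, seeded in 1536-well plates, were treated the following day by pin tool with a single drug or with five library-drug doses (not always all listed) in √10 steps on top of a fixed anchor-drug dose. Cells were fixed and nuclei stained in one step after 5 days, and nuclei were counted. Relative viability is the nuclei count for treated wells divided by that for vehicle wells, reported as medians of duplicate plates.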

NCI-H1915 = test system: NCI-H1915
Procedure, shortened: as §1

HCC-827 = test system: HCC-827
Procedure, shortened: as §1

PC-14 = test system: PC-14
Procedure, shortened: as §1

LCLC-97TM1 = test system: LCLC-97TM1
Procedure, shortened: as §1

NCI-H23 = test system: NCI-H23
Procedure, shortened: as §1

NCI-H661 = test system: NCI-H661
Procedure, shortened: as §1

NCI-H1944 = test system: NCI-H1944
Procedure, shortened: as §1

NCI-H460 = test system: NCI-H460
Procedure, shortened: as §1

SK-LU-1 = test system: SK-LU-1
Procedure, shortened: as §1

EPLC-272H = test system: EPLC-272H
Procedure, shortened: as §1

Compound `COCC1(CO)C(=O)C2CCN1CC2` (configuration not stated) [PRIMA-1MET] + CC(=O)Nc1cccc(-n2c(=O)n(C3CC3)c(=O)c3c(Nc4ccc(I)cc4F)n(C)c(=O)c(C)c32)c1 [Trametinib] (partner 0.02 µM) has a relative viability (NCI-H1993; first compound 6.325 µM) of 0.534, a relative viability (NCI-H1993; first compound 20 µM) of 0.514 and a relative viability (NCI-H1915; first compound 0.2 µM) of 0.166. It also gave a relative viability (NCI-H1915; first compound 0.6325 µM) of 0.246, a relative viability (NCI-H1915; first compound 2 µM) of 0.248 and a relative viability (NCI-H1915; first compound 6.325 µM) of 0.218. The relative viability (NCI-H1915; first compound 20 µM) was 0.31, the relative viability (HCC-827; first compound 0.2 µM) was 0.443 and the relative viability (HCC-827; first compound 0.6325 µM) was 0.523. It also gave a relative viability (HCC-827; first compound 2 µM) of 0.474, a relative viability (HCC-827; first compound 6.325 µM) of 0.461 and a relative viability (HCC-827; first compound 20 µM) of 0.481. For the same compound, the relative viability (PC-14; first compound 0.2 µM) was 0.921, the relative viability (PC-14; first compound 0.6325 µM) was 0.618 and the relative viability (PC-14; first compound 2 µM) was 0.97. It also gave a relative viability (PC-14; first compound 6.325 µM) of 0.693, a relative viability (PC-14; first compound 20 µM) of 0.615 and a relative viability (LCLC-97TM1; first compound 0.2 µM) of 0.133. It also gave a relative viability (LCLC-97TM1; first compound 0.6325 µM) of 0.163, a relative viability (LCLC-97TM1; first compound 2 µM) of 0.179 and a relative viability (LCLC-97TM1; first compound 6.325 µM) of 0.151. It also gave a relative viability (LCLC-97TM1; first compound 20 µM) of 0.197, a relative viability (NCI-H23; first compound 0.2 µM) of 0.281 and a relative viability (NCI-H23; first compound 0.6325 µM) of 0.37. The relative viability (NCI-H23; first compound 2 µM) was 0.273, the relative viability (NCI-H23; first compound 6.325 µM) was 0.328 and the relative viability (NCI-H23; first compound 20 µM) was 0.112. The relative viability (NCI-H661; first compound 0.2 µM) was 0.506, the relative viability (NCI-H661; first compound 0.6325 µM) was 0.492 and the relative viability (NCI-H661; first compound 2 µM) was 0.547. The relative viability (NCI-H661; first compound 6.325 µM) was 0.552, the relative viability (NCI-H661; first compound 20 µM) was 0.503 and the relative viability (NCI-H1944; first compound 0.2 µM) was 0.366. The relative viability (NCI-H1944; first compound 0.6325 µM) was 0.349, the relative viability (NCI-H1944; first compound 2 µM) was 0.407 and the relative viability (NCI-H1944; first compound 6.325 µM) was 0.387. For the same compound, the relative viability (NCI-H1944; first compound 20 µM) was 0.425, the relative viability (NCI-H460; first compound 0.2 µM) was 0.0362 and the relative viability (NCI-H460; first compound 0.6325 µM) was 0.0885. For the same compound, the relative viability (NCI-H460; first compound 2 µM) was 0.0744, the relative viability (NCI-H460; first compound 6.325 µM) was 0.136 and the relative viability (NCI-H460; first compound 20 µM) was 0.0091. The relative viability (SK-LU-1; first compound 0.2 µM) was 0.308, the relative viability (SK-LU-1; first compound 0.6325 µM) was 0.488 and the relative viability (SK-LU-1; first compound 2 µM) was 0.35. For the same compound, the relative viability (SK-LU-1; first compound 6.325 µM) was 0.382, the relative viability (SK-LU-1; first compound 20 µM) was 0.528 and the relative viability (EPLC-272H; first compound 0.2 µM) was 0.281. The relative viability (EPLC-272H; first compound 0.6325 µM) was 0.303, the relative viability (EPLC-272H; first compound 2 µM) was 0.272 and the relative viability (EPLC-272H; first compound 6.325 µM) was 0.29. For the same compound, the relative viability (EPLC-272H; first compound 20 µM) was 0.216.
